Molecules are shown by their SMILES. “Also recorded” adds a separate entry of the source.

Experiment [1] has as its system hESCs. Put plainly: Marker expression in hESCs maintained in mTeSR1 media with GANT-61. The format is cell-based, human. The note with it: 5 μM and 20 μM GANT-61, 6 or 12 days. On the procedure: H1 (WA01), a well characterized human embryonic stem cell line,^33 was purchased from WiCell (Madison, WI, www.wicell.org/home/stem-cells/catalog-of-stem-cell-lines/wa01.cmsx). The cells were maintained on Matrigel-coated culture dishes in mTeSR1 medium (STEMCELL Technologies) or StemMACS iPS-Brew XF (Miltenyi Biotec).
(§1) High-Capacity RNA-to-cDNA kit (Applied Biosystems) was used to reverse transcribe the isolated RNA. Each reaction tube included up to 2 μg of RNA. The reverse transcription reaction was performed according to manufacturer instructions via the MBS Satellite (0.2 G) Thermal Cycler (ThermoFisher Scientific). The qPCR reaction mix was prepared by adding 12 ng of cDNA from each sample to the PowerUp SYBR Green Master Mix (2×) (Applied Biosystems). qPCR was performed (Standard Cycling Mode, primer Tm<60° C.) via the 7500 Fast Real-Time PCR system [Applied Biosystems]. The 7500 v2.3 software was used for data collection and gene expression comparisons (2^−ΔΔCT method).
Next, the effect of GANT-61 on GLI1 and SHH pathway members PTCH1 and SMO expression and on pluripotency marker expression in hESCs was evaluated.

The subject of experiment [2] is cancer cells. The note with it: cited from earlier work.
In experiment [3] the test system is Rh41 cells. Put plainly: rt-PCR of GLI1 target gene Bcl-2 in GANT-61 treated Rh41 cells. In kind it is cell-based. The method, then:
as §1
(§2) First, to validate the effect of GANT-61 inhibition on GLI1 target genes, rt-PCR on GANT-61 treated Rh18 and Rh41 cells was performed. These cell lines express GLI1.

Experiment [4] relates to H1 hESCs. As to the kind of experiment: Spontaneous differentiation of WT H1 hESC in embryoid bodies in the presence of GANT-61, real time PCR. The format is cell-based, human. The method, then:
WT H1 hESC single cells were plated onto non-attachment plates and maintained in ESC media without FGF-β in the presence of FBS. Experimental group was cultured in the presence of GANT-61 (Tocris Biosciences, Cat. No. 3191) at concentration of 5 μM, while the control group was cultured in the presence of 5 μM DMSO. Media containing GANT-61 was replaced every other day. Embryoid bodies were collected at days 10 and 20. Markers for the three embryologic lineages were analyzed by real time PCR.
as §1
(In general: In qPCR the cycle at which signal appears reflects the starting amount.)

In experiment [5] the test system is human colon carcinoma cell lines. The note with it: panel of 7 human colon carcinoma cell lines; cited from earlier work.
In experiment [6] the test system is GLI1 and GLI2 transcription factors. The following applies: cited from earlier work.
Experiment [7] deals with T1, GLI1 (Homo sapiens, UniProt P08151).
T1 sequence (P08151 1-1106): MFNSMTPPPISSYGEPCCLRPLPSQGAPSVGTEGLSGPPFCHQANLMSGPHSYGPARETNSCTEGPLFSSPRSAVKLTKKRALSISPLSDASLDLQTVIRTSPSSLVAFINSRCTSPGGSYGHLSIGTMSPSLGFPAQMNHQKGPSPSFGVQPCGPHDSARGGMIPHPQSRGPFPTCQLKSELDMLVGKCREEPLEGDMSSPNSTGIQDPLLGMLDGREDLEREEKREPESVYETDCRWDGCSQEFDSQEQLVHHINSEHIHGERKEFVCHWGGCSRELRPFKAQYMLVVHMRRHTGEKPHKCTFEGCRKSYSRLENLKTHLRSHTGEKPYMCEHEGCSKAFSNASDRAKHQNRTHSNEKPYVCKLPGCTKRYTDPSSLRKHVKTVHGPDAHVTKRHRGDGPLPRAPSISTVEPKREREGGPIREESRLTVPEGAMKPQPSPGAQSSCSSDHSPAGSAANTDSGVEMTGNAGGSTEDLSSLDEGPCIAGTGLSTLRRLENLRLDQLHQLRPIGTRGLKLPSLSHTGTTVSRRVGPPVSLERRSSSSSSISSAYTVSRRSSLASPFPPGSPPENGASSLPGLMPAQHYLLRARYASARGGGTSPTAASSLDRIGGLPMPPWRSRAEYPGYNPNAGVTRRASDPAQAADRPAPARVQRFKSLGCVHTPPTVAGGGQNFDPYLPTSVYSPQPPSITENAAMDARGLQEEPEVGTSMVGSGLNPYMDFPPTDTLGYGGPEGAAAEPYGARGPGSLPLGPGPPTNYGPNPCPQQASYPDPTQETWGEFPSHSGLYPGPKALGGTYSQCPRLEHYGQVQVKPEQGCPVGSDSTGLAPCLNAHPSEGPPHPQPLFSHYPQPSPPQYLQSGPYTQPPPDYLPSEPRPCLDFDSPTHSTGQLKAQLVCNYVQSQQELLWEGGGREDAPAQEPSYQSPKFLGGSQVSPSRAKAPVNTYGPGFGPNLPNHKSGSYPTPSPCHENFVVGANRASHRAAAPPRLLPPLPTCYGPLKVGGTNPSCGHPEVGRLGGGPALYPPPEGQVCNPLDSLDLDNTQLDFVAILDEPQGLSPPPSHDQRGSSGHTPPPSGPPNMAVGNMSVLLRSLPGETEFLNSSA
The following applies: between zinc fingers 2 and 3 at sites E119 and E167; cited from earlier work.

Experiment [8] has as its system Rh18 cells. Put plainly: rt-PCR of GLI1 target gene Bcl-2 in GANT-61 treated Rh18 cells. The format is cell-based. The method, then:
as §1, §2

The test system of experiment [9] is lung adenocarcinoma cell lines. The note with it: cited from earlier work.
Experiment [10] deals with DNA. The following applies: cited from earlier work.
The test system of experiment [11] is HUVEC cells. The following applies: cited from earlier work.
[12] abbreviates: 5 μM GANT-61, day 10 embryoid bodies.
Where [13] appears, read: 5 μM GANT-61, during the differentiation process.

With `CN(C)c1ccccc1CN1CCCN(Cc2ccccc2N(C)C)C1c1ccncc1` [GANT-61], in experiment [1], the GLI1 expression result was “no significant differences”, the PTCH1 expression entry is recorded as “no significant differences”, the SMO expression entry is recorded as “no significant differences” and the pluripotency marker expression entry is “no significant differences”. In [2], the apoptosis entry is given as “increases”, the proliferation result is on record as “reduces” and the stem cell markers entry is reported as “reduces”. The Bcl-2 expression result in [3] was “significant down-regulation”. The “mesodermal commitment of H1 hESCs in embryoid bodies” value in [4] was “inhibited”. Besides, in [4] (5 μM GANT-61, day 10), the GLI1 expression result is on record as “down-regulated”, the GLI2 expression result is “down-regulated”, the PTCH1 expression result is reported as “down-regulated” and the Plakoglobin expression result is “down-regulated”. The “expression of pluripotency genes” value in experiment [4] (5 μM GANT-61, day 10) is reported as “down-regulated”. In addition, in experiment [4] (setting [12]), the “ectodermal gene expression / differentiation” value was “decreased; also recorded: inhibited”, the “endodermal gene expression / differentiation” value is reported as “significantly increased; also recorded: promoted” and the “mesodermal gene expression / differentiation” value was “significantly increased; also recorded: promoted”. In experiment [4] (5 μM GANT-61, day 20), the GLI1 expression entry is “continued to down-regulate”, the GLI2 expression entry was “continued to down-regulate”, the PTCH1 expression entry is “continued to down-regulate” and the endodermal marker expression entry is reported as “significantly decreased; also recorded: significantly reduced”. For the same molecule, in experiment [4] (5 μM GANT-61, day 20), the “expression of pluripotency genes” value is “continued to down-regulate” and the mesodermal marker expression result was “significantly decreased; also recorded: significantly reduced”. Further, in experiment [4] (setting [13]), the GLI1 expression entry is “significantly down-regulated” and the PTCH1 expression entry was “significantly down-regulated”. Besides, the cell death result in experiment [5] was “extensive cell death”. Further, the “binding of GLI1 and GLI2 transcription factors to DNA” value in experiment [6] is “inhibiting the binding”. In experiment [7], the “binding to GLI1” value is given as “binds”. For the same molecule, the Bcl-2 expression entry in experiment [8] is “significant down-regulation”. The cancer initiating phenotype entry in experiment [9] is “effective inhibiting”. Further, the “binding to DNA” value in [10] is listed as “does not bind”.

Take `c1cc(-c2sc(-c3ccncc3)c(-c3ccncc3)c2-c2ccncc2)ccn1` [GANT-58]: in [11] (HUVEC cells), the “oxytocin induced HIF-1alpha expression” value is listed as “abrogate”. Further, the “angiogenic capacity of HUVEC cells” value in experiment [11] is on record as “reduction”.
